Measurements reported in PubChem BioAssay (NCI).
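Method: 48-hour compound exposure of cells in 96-well plates, five concentrations, linear interpolation of endpoints. At the GI50, growth is halved. At the TGI there is no net growth.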

Experiments:
Experiment in all cases: inhibition of tumour cell growth, NCI panel, 48 h
786-0 renal = test system: 786-0 renal
A498 renal = test system: A498 renal
A549 NSCLC = test system: A549 NSCLC
ACHN renal = test system: ACHN renal
BT-549 breast = test system: BT-549 breast
CAKI-1 renal = test system: CAKI-1 renal
CCRF-CEM leukemia = test system: CCRF-CEM leukemia
COLO 205 colon = test system: COLO 205 colon
DU-145 prostate = test system: DU-145 prostate
EKVX NSCLC = test system: EKVX NSCLC
HCC-2998 colon = test system: HCC-2998 colon
HCT-116 colon = test system: HCT-116 colon
HCT-15 colon = test system: HCT-15 colon
HL-60(TB) leukemia = test system: HL-60(TB) leukemia
HOP-62 NSCLC = test system: HOP-62 NSCLC
HOP-92 NSCLC = test system: HOP-92 NSCLC
HS 578T breast = test system: HS 578T breast
HT29 colon = test system: HT29 colon
IGROV1 ovarian = test system: IGROV1 ovarian
K-562 leukemia = test system: K-562 leukemia
KM12 colon = test system: KM12 colon
LOX IMVI melanoma = test system: LOX IMVI melanoma
M14 melanoma = test system: M14 melanoma
MALME-3M melanoma = test system: MALME-3M melanoma
MCF7 breast = test system: MCF7 breast
MDA-MB-231 breast = test system: MDA-MB-231 breast
MDA-MB-435 = test system: MDA-MB-435
MOLT-4 leukemia = test system: MOLT-4 leukemia
NCI-H226 lung = test system: NCI-H226 lung
NCI-H23 lung = test system: NCI-H23 lung
NCI-H460 lung = test system: NCI-H460 lung
NCI-H522 lung = test system: NCI-H522 lung
NCI/ADR-RES ovarian = test system: NCI/ADR-RES ovarian
OVCAR-3 ovarian = test system: OVCAR-3 ovarian
OVCAR-4 ovarian = test system: OVCAR-4 ovarian
OVCAR-5 ovarian = test system: OVCAR-5 ovarian
OVCAR-8 ovarian = test system: OVCAR-8 ovarian
PC-3 prostate = test system: PC-3 prostate
RPMI-8226 leukemia = test system: RPMI-8226 leukemia
RXF 393 renal = test system: RXF 393 renal
SF-268 CNS = test system: SF-268 CNS
SF-295 CNS = test system: SF-295 CNS
SF-539 CNS = test system: SF-539 CNS
SK-MEL-2 melanoma = test system: SK-MEL-2 melanoma
SK-MEL-28 melanoma = test system: SK-MEL-28 melanoma
SK-MEL-5 melanoma = test system: SK-MEL-5 melanoma
SK-OV-3 ovarian = test system: SK-OV-3 ovarian
SN12C renal = test system: SN12C renal
SNB-19 CNS = test system: SNB-19 CNS
SNB-75 CNS = test system: SNB-75 CNS
SR leukemia = test system: SR leukemia
SW-620 colon = test system: SW-620 colon
T-47D breast = test system: T-47D breast
TK-10 renal = test system: TK-10 renal
U251 CNS = test system: U251 CNS
UACC-257 melanoma = test system: UACC-257 melanoma
UACC-62 melanoma = test system: UACC-62 melanoma
UO-31 renal = test system: UO-31 renal

## C[C@@H]1CC[C@@H]2[C@@H]1[C@H](OC(=O)/C=C/c1ccccc1)[C@]1(c3ccccc3)C[C@@H](OC(=O)CO)[C@@]2(C)O1
786-0 renal
  GI50: 11.7 µM
  TGI: 29.3 µM
A498 renal
  GI50: 0.189 µM
  TGI: 0.585 µM
A549 NSCLC
  GI50: 14.8 µM
  TGI: 33.8 µM
ACHN renal
  GI50: 0.179 µM
  TGI: 0.597 µM
BT-549 breast
  GI50: 0.406 µM
  TGI: 17.7 µM
CAKI-1 renal
  GI50: 0.504 µM
  TGI: 18.4 µM
CCRF-CEM leukemia
  GI50: 20.8 µM
  TGI: 84.2 µM
COLO 205 colon
  GI50: 16.1 µM
  TGI: 32.7 µM
DU-145 prostate
  GI50: 15.9 µM
  TGI: 33.8 µM
EKVX NSCLC
  GI50: 12.6 µM
  TGI: 35.8 µM
HCC-2998 colon
  GI50: 14.6 µM
  TGI: 29 µM
HCT-116 colon
  GI50: 12.7 µM
  TGI: 27.6 µM
HCT-15 colon
  GI50: 12.7 µM
  TGI: 32.7 µM
HL-60(TB) leukemia
  GI50: 14.9 µM
  TGI: 53.9 µM
HOP-62 NSCLC
  GI50: 16.2 µM
  TGI: 31.1 µM
HOP-92 NSCLC
  GI50: 6.52 µM
  TGI: 20.1 µM
HS 578T breast
  GI50: 0.112 µM
  TGI: 0.708 µM
HT29 colon
  GI50: 15.9 µM
  TGI: 37.8 µM
IGROV1 ovarian
  GI50: 17 µM
  TGI: 44.5 µM
K-562 leukemia
  GI50: 7.76 µM
  TGI: > 100 µM
KM12 colon
  GI50: 15.2 µM
  TGI: 38.1 µM
LOX IMVI melanoma
  GI50: 13.9 µM
  TGI: 27.2 µM
M14 melanoma
  GI50: 16.2 µM
  TGI: 35.8 µM
MALME-3M melanoma
  GI50: 16.5 µM
  TGI: 31.4 µM
MCF7 breast
  GI50: 9.19 µM
  TGI: 26.5 µM
MDA-MB-231 breast
  GI50: 16.5 µM
  TGI: 34.2 µM
MDA-MB-435
  GI50: 14.9 µM
  TGI: 33.2 µM
MOLT-4 leukemia
  GI50: 6.86 µM
  TGI: 33.9 µM
NCI-H226 lung
  GI50: 13.2 µM
  TGI: 29 µM
NCI-H23 lung
  GI50: 15 µM
  TGI: 35.9 µM
NCI-H460 lung
  GI50: 16.3 µM
  TGI: 38.6 µM
NCI-H522 lung
  GI50: 13.2 µM
  TGI: 30 µM
NCI/ADR-RES ovarian
  GI50: 4.41 µM
  TGI: 24.9 µM
OVCAR-3 ovarian
  GI50: 13.3 µM
  TGI: 27 µM
OVCAR-4 ovarian
  GI50: 12.3 µM
  TGI: 27.3 µM
OVCAR-5 ovarian
  GI50: 15.5 µM
  TGI: 34.5 µM
OVCAR-8 ovarian
  GI50: 6.71 µM
  TGI: 34.8 µM
PC-3 prostate
  GI50: 3.67 µM
  TGI: 18.9 µM
RPMI-8226 leukemia
  GI50: 10.3 µM
  TGI: 38.9 µM
RXF 393 renal
  GI50: 0.252 µM
  TGI: 13.7 µM
SF-268 CNS
  GI50: 10.4 µM
  TGI: 37.7 µM
SF-295 CNS
  GI50: 12.8 µM
  TGI: 32.3 µM
SF-539 CNS
  GI50: 14.6 µM
  TGI: 28.3 µM
SK-MEL-2 melanoma
  GI50: 19.6 µM
  TGI: 38.3 µM
SK-MEL-28 melanoma
  GI50: 16.3 µM
  TGI: 33.4 µM
SK-MEL-5 melanoma
  GI50: 13.4 µM
  TGI: 26.2 µM
SK-OV-3 ovarian
  GI50: 23.4 µM
  TGI: 55.6 µM
SN12C renal
  GI50: 0.538 µM
  TGI: 22.4 µM
SNB-19 CNS
  GI50: 20.2 µM
  TGI: 55.9 µM
SNB-75 CNS
  GI50: 11.6 µM
  TGI: 37.9 µM
SR leukemia
  GI50: 5.86 µM
  TGI: 38.8 µM
SW-620 colon
  GI50: 19.1 µM
  TGI: 42.6 µM
T-47D breast
  GI50: 6.67 µM
  TGI: 21.2 µM
TK-10 renal
  GI50: 18.2 µM
  TGI: 41.8 µM
U251 CNS
  GI50: 14.2 µM
  TGI: 29.3 µM
UACC-257 melanoma
  GI50: 21.1 µM
  TGI: 43.1 µM
UACC-62 melanoma
  GI50: 14.5 µM
  TGI: 33.3 µM
UO-31 renal
  GI50: 0.154 µM
  TGI: 0.305 µM
